Publication PMC4872110 (Nucleic Acids Research, 2016)

T1: SsTsr3 (Saccharolobus solfataricus, UniProt Q9UWV6)
T1 sequence (Q9UWV6 1-166): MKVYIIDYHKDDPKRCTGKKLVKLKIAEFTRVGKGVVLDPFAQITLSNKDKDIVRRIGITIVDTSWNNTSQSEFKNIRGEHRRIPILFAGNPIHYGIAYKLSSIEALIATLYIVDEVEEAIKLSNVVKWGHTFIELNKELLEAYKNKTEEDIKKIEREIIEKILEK

T2: SsTsr3 (Sulfolobus solfataricus, UniProt Q9UWV6 1-166)
T2 sequence: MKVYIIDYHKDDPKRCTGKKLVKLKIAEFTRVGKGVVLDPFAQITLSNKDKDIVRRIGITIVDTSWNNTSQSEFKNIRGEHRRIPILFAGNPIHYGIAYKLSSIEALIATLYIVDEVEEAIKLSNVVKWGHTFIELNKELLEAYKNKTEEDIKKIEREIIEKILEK


Columns and labels:
SsTsr3 [1] = target: T1, SsTsr3; assay: tryptophan fluorescence quenching; type: binding
VdTsr3 = VdTsr3 (Vulcanisaeta distributa, UniProt E1QU22); settings: co-purified endogenous E. coli SAM
SsTsr3 [2] = target: SsTsr3 (Saccharolobus solfataricus, UniProt Q9UWV6, T17A); assay: biochemical
SsTsr3 [3] = target: SsTsr3 (Saccharolobus solfataricus, UniProt Q9UWV6, D63A); assay: biochemical
SsTsr3 [4] = target: SsTsr3 (Saccharolobus solfataricus, UniProt Q9UWV6, T17D); assay: biochemical
SsTsr3 [5] = target: T2, SsTsr3; assay: fluorescence anisotropy

Sequence of SsTsr3 (Saccharolobus solfataricus, UniProt Q9UWV6, T17A) (Q9UWV6 whole entry T17A): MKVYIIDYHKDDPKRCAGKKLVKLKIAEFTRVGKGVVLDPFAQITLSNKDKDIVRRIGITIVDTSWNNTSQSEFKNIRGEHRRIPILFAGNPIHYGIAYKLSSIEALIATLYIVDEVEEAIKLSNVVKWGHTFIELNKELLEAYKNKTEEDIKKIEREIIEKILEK
Sequence of VdTsr3 (E1QU22 whole entry): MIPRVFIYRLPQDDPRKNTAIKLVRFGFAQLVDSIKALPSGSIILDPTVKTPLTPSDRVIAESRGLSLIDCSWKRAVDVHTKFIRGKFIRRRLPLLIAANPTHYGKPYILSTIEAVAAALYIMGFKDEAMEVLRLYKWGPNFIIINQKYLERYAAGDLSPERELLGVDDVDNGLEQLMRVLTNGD
Sequence of SsTsr3 (Saccharolobus solfataricus, UniProt Q9UWV6, D63A) (Q9UWV6 whole entry D63A): as the sequence (Q9UWV6 whole entry T17A) above, with A17T, D63A counted along it
Sequence of SsTsr3 (Saccharolobus solfataricus, UniProt Q9UWV6, T17D) (Q9UWV6 whole entry T17D): as the sequence (Q9UWV6 whole entry T17A) above, with A17D counted along it

Kd (SsTsr3 [1]) [µM] | Kd (SsTsr3 [2]) [µM] | Kd (SsTsr3 [3]) [µM] | Kd (SsTsr3 [4]) [µM] | Molecule | X-ray crystal structure, 1.6 Å (Se-SAD) (VdTsr3) | Kd (SsTsr3 [5]) [µM]
6.5 | 3900 | 11 | 11200 | C[S+](CC[C@H](N)C(=O)O)C[C@H]1O[C@@H](n2cnc3c(N)ncnc32)[C@H](O)[C@@H]1O (stereo partly drawn) [SAM] | VdTsr3 was purified and crystallized in complex with endogenous (E. coli) SAM | 
 |  |  |  | UUUUUUUUU (ssRNA) [oligo-U9 RNA] |  | 6
